Test results taken from PubChem BioAssay AID248 (DTP/NCI, 2004).
Inconclusive results and toxic doses are left out.

System: L1210 leukemia ip in BDF1 mice, survival T/C
Test: NCI In Vivo Anticancer Drug Screen. Data for tumor model L1210 Leukemia (intraperitoneal) in B6D2F1 (BDF1) mice
Conditions: endpoint: mean survival time, higher = longer survival
Procedure, shortened: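 Ratio derived from survival: compound-dosed mice over vehicle-dosed mice, all bearing a transplantable tumor.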

[1] = dose: 100.0 mg/kg/injection, schedule: Q01DX001 (ip), vehicle: carboxymethylcellulose (CMC)
[2] = dose: 200.0 mg/kg/injection, schedule: Q01DX001 (ip), vehicle: carboxymethylcellulose (CMC)
[3] = dose: 400.0 mg/kg/injection, schedule: Q01DX001 (ip), vehicle: carboxymethylcellulose (CMC)
[4] = dose: 400.0 mg/kg/injection, schedule: Q04DX003 (ip), vehicle: saline
[5] = dose: 100.0 mg/kg/injection, schedule: Q01DX009 (ip), vehicle: Klucel (hydroxypropylcellulose) (HPC)
[6] = dose: 200.0 mg/kg/injection, schedule: Q01DX009 (ip), vehicle: Klucel (hydroxypropylcellulose) (HPC)

CN1Cc2c(ccc3c2OCO3)[C@@H]2[C@H](O)Cc3cc4c(cc3[C@@H]21)OCO4
T/C (dose: 50.0 mg/kg/injection, schedule: Q01DX Z (ip), vehicle: carboxymethylcellulose (CMC)): 102 % of control
T/C (dose: 75.0 mg/kg/injection, schedule: Q01DX Z (ip), vehicle: carboxymethylcellulose (CMC)): 108 % of control
T/C [1]: 102 % of control
T/C (dose: 100.0 mg/kg/injection, schedule: Q01DX Z (ip), vehicle: carboxymethylcellulose (CMC)): 102 % of control
T/C (dose: 100.0 mg/kg/injection, schedule: Q04DX003 (ip), vehicle: saline with Tween-80): 101 % of control
T/C (dose: 180.0 mg/kg/injection, schedule: Q04DX003 (ip), vehicle: Klucel (hydroxypropylcellulose) (HPC)): 111 % of control
T/C [2]: 113 % of control
T/C (dose: 200.0 mg/kg/injection, schedule: Q04DX003 (ip), vehicle: saline with Tween-80): 101 % of control
T/C (dose: 266.0 mg/kg/injection, schedule: Q04DX003 (ip), vehicle: Klucel (hydroxypropylcellulose) (HPC)): 98 % of control
T/C (dose: 266.0 mg/kg/injection, schedule: Q04DX003 (ip), vehicle: saline): 105 % of control
T/C (dose: 300.0 mg/kg/injection, schedule: Q01DX Z (ip), vehicle: carboxymethylcellulose (CMC)): 98 % of control
T/C [3]: 102 % of control
T/C (dose: 400.0 mg/kg/injection, schedule: Q04DX003 (ip), vehicle: saline with Tween-80): 165 % of control
T/C [4]: 111 % of control
T/C (dose: 600.0 mg/kg/injection, schedule: Q04DX003 (ip), vehicle: Klucel (hydroxypropylcellulose) (HPC)): 157 % of control

CCOc1cc(/C=N/NC(=O)c2ccccc2NC(=O)c2ccccc2Cl)ccc1O
T/C [5]: 90 % of control
T/C [6]: 95 % of control
T/C (dose: 400.0 mg/kg/injection, schedule: Q01DX009 (ip), vehicle: Klucel (hydroxypropylcellulose) (HPC)): 92 % of control

CCCCCCCCC1NC1CCCCCCCCO (stereo unspecified)
T/C (dose: 100.0 mg/kg/injection, schedule: Q04DX002 (ip), vehicle: Klucel (hydroxypropylcellulose) (HPC)): 103 % of control
T/C (dose: 200.0 mg/kg/injection, schedule: Q04DX002 (ip), vehicle: Klucel (hydroxypropylcellulose) (HPC)): 103 % of control
T/C (dose: 400.0 mg/kg/injection, schedule: Q04DX002 (ip), vehicle: Klucel (hydroxypropylcellulose) (HPC)): 100 % of control

COC(=O)C(CCSC)NC(=O)C1CSC(C)(C)N1C=O (stereo unspecified)
T/C (dose: 100.0 mg/kg/injection, schedule: Q04DX003 (ip), vehicle: saline): 97 % of control
T/C (dose: 200.0 mg/kg/injection, schedule: Q04DX003 (ip), vehicle: saline): 97 % of control
T/C [4]: 101 % of control

CC12OC1(C)C1(C)C3(C)OC3(C)C21C (stereo unspecified)
T/C (dose: 50.0 mg/kg/injection, schedule: Q01DX009 (ip), vehicle: Klucel (hydroxypropylcellulose) (HPC)): 97 % of control
T/C (dose: 100.0 mg/kg/injection, schedule: Q01DX001 (ip), vehicle: Klucel (hydroxypropylcellulose) (HPC)): 100 % of control
T/C [5]: 96 % of control
T/C (dose: 200.0 mg/kg/injection, schedule: Q01DX001 (ip), vehicle: Klucel (hydroxypropylcellulose) (HPC)): 100 % of control
T/C [6]: 96 % of control

Cc1cc(N(CCCl)CCCl)ccc1C=Nc1cccc(Cl)c1
T/C (dose: 50.0 mg/kg/injection, schedule: Q01DX001 (ip), vehicle: carboxymethylcellulose (CMC)): 100 % of control
T/C [1]: 107 % of control
T/C [2]: 100 % of control
T/C [3]: 94 % of control

CCCC#CC(=O)OCCCC
T/C (dose: 100.0 mg/kg/injection, schedule: Q04DX002 (ip), vehicle: saline with Tween-80): 93 % of control
T/C (dose: 200.0 mg/kg/injection, schedule: Q04DX002 (ip), vehicle: saline with Tween-80): 90 % of control
T/C (dose: 400.0 mg/kg/injection, schedule: Q04DX002 (ip), vehicle: saline with Tween-80): 90 % of control
